Measured values published in patent US10137122B2, “Kinase inhibitors and methods of use thereof” (priority 2012, dated 2018).

System: phospho-Tau (Ser199) in SH-SY5Y cells
Assay: Tau phosphorylation assay (phospho-Tau Ser199 ELISA)
Assay type: cell-based, human
Conditions: Homo sapiens, SH-SY5Y, read-out: p-Tau Inhibition ELISA EC50 SH-SY5Y
Procedure: Tau Phosphorylation and Total Tau Assay
SH-SY5Y cells were maintained in DMEM supplemented with 10% heat-inactivated FBS and 1% penicillin-streptomycin (Invitrogen) unless otherwise stated. ELISA kits for phospho-Tau (Ser199) and total Tau detection were purchased from Invitrogen (KHB0041, and KHB7041 respectively). Briefly, SH-SY5Y cells were seeded at 50,000 cells/200 μL/well in 96 well plates and after overnight incubation, treated with various doses of chemical compounds at 0.2 μL/well. The next day cells were washed with PBS twice before being lysed in 100 μL Lysis buffer/well. 50 μL of cell lysate of each sample was transferred to an ELISA vial coated with the capture antibody, and the mixture was incubated at room temperature for 2 hours, before the supernatant was aspired, and each vial washed four times. 100 μL of detection antibody was then added to each well, incubated for 1 hour, and then washed four times. […] Data were scaled using the positive and neutral controls and fitted for IC50.
A standard protocol using an immunoassay kit to quantify total Tau protein and phospho-Tau (Ser199) protein in SH-SY5Y human neuroblastoma cells was employed. Human Tau (Total) ELISA kit (#KHB0041) and human phosphor-Tau (Ser199) ELISA kit were purchased from Invitrogen (#KHB7041)
50,000 cells were seeded in 200 μl per well in cell culture media (250,000 cells/ml). Cells were incubated overnight @37° C. Cells were induced with appropriate doses of inhibitors and incubated for approximately 24 hrs @37° C. Cell lysates were harvested by washing cells once with cold PBS and adding 100 μl cold lysis buffer and pipette up and down vigorously. Lysate was transferred to 96 well PCR plate and centrifuged at 4,000 rpm for 20 minutes at 4° C.
Well strips were warmed and inserted into the frame. 100μ of standard diluent buffer were loaded into ZERO wells, and 100 ul of each standard concentrations (both total Tau and pTau) were loaded into wells in duplicate. Samples were loaded to each well that would be analyzed for total Tau, 85 μl standard diluent buffer and 15 μl cell lysate were added. To each well that will be analyzed for pTau (Ser199) 50 μl standard diluent buffer+50 μl cell lysate were added. Plates were tapped gently on the side to mix. Certain wells were left empty for chromogen blank. Plates were covered and incubated for 2 hours at room temperature. Wells were aspirated 4 times (400 μl diluted wash buffer, left for 30 seconds, aspirated all wells; alternatively used automated plate washer and programmed in a 30 second hold between each cycle). 100 μl of detection antibody solution were added to each well except chromogen blanks. Anti-total Tau was added to wells being analyzed for total Tau, anti-pTau (Ser199) was added to wells being analyzed for pTau (Ser199), and plates were tapped gently on the side to mix. Plates were covered and incubated for 1 hour at room temperature, then wells were aspirated and washed 4 times as described above. 100 μl of anti-rabbit IgG HRP working solution (prepared ahead) were added to each well except chromogen blanks, and plates were covered and incubated for 30 minutes at room temperature, then wells were aspirated and washed 4 times as described above. 100 μl of stabilized chromogen were added to each well (the liquid turned blue). Plates were incubates for 30 minutes at room temperature in the dark, then 100 μl of stop solution were added to each well, and plates were tapped gently on the side to mix. Absorbance of each well was read at 450 nm (within 2 hours of adding stop solution).

| SMILES | EC50 [µM] |
| --- | --- |
| Cc1[nH]nc2c1C(c1ccccc1)(C(F)(F)F)C1=C(CC(C)(C)CC1=O)N2 (centres unmarked) [Compound 92, 1,6,6-trimethyl-9-phenyl-9-(trifluoromethyl)-5,6,7,9-tetrahydro-2H-pyrazolo[3,4-b]quinolin-8(4H)-one] | 20.4 |
| CC1(C)CC(=O)C2=C(C1)Nc1n[nH]c(Cl)c1C2(C)c1ccccc1 (centres unmarked) [Compound 110] | 4.55 |
| CC1(C)CC(=O)C2=C(C1)Nc1n[nH]c(Br)c1C2(C)c1ccccc1 (centres unmarked) [Compound 111] | 2.98 |
| CCC1(c2ccccc2)C2=C(CC(C)(C)CC2=O)Nc2n[nH]c(C)c21 (racemic) [Compound 89, 9-ethyl-1,6,6-trimethyl-9-phenyl-5,6,7,9-tetrahydro-2H-pyrazolo[3,4-b]quinolin-8(4H)-one] | 22.2 |

System: β-catenin nuclear translocation in U2-OS cells
Assay: β-Catenin nuclear localization assay
Assay type: cell-based
Conditions: Homo sapiens, U2OS, read-out: beta-Catenin translocation EC50
Procedure: β-Catenin Nuclear Localization Assay
U2-OS cells stably expressing two complimentary β-galactosidase fragments (one part on β-Catenin and the other constitutively expressed in the cell nucleus) were maintained in DMEM F12 supplemented with 10% FBS. When β-catenin translocates to the nucleus, the complimentary fragments form a complete β-galactosidase, the amount of which is then quantified by β-galactosidase activity (DiscoveRx). Cells were seeded in a 384-well CulturPlate (Perkin Elmer, Boston, Mass.) with 10,000 per well in 20 μL DMEM F12 containing 10% FCS, 100 U/ml penicillin and 100 μg/mL streptomycin. After overnight incubation at 37° C., cells were stimulated with 100 nL test compound/well and then returned to the incubator for 6 h. Cells were disrupted using 12 μL substrate-containing lysis buffer from the PathHunter Detection Kit in the formulation specified by the supplier (DiscoveRx). Plates were incubated in the dark for 1 h at room temperature before measurement of β-galactosidase activity (luminescence) on an EnVision plate reader (PerkinElmer, Waltham, Mass.).

| SMILES | EC50 [µM] |
| --- | --- |
| Cc1[nH]nc2c1C(c1ccc(C(F)(F)F)cc1)C1=C(CC(C)(C)CC1=O)N2 (centres unmarked) [Compound 31, 3,7,7-trimethyl-4-(4-(trifluoromethyl)phenyl)-6,7,8,9-tetrahydro-2H-pyrazolo[3,4-b]quinolin-5(4H)-one] | > 50 |
| Cc1cccc(C2C3=C(CC(C)(C)CC3=O)Nc3n[nH]c(C)c32)c1 (centres unmarked) [Compound 18, 3,7,7-trimethyl-4-(m-tolyl)-6,7,8,9-tetrahydro-2H-pyrazolo[3,4-b]quinolin-5(4H)-one] | > 50 |
| COc1ccccc1C1C2=C(CC(C)(C)CC2=O)Nc2n[nH]c(C(F)(F)F)c21 (racemic) [Compound 53, 4-(2-methoxyphenyl)-7,7-dimethyl-3-(trifluoromethyl)-6,7,8,9-tetrahydro-2H-pyrazolo[3,4-b]quinolin-5(4H)-one] | 14 |

System: TCF/LEF reporter in HEK293-pBARL cells
Assay: cells
Conditions: Homo sapiens, HEK293, read-out: TCF/LEF EC50 (μM)
Procedure: HEK293-pBARL cells were derived from HEK293 cells and they stably expressed a firefly-luciferase reporter gene driven by a promoter containing 12 copies of TCF/LEF binding sequences. These cells were maintained in DMEM and supplemented with 10% FBS and 1% penicillin-streptomycin (Invitrogen). Reporter gene assays were conducted in anti-biotic free media. […] These cells also contained a renilla-luciferase reporter gene driven by the ubiquitous EF1α promoter as a control. HEK293-pBarl reporter cell lines were seeded into 384-well culture plates (Corning) at 6000 cells/well. 24 hours after plating, cells were treated overnight with relevant compounds and assayed using DualGlo assay kit (Promega). Luminescent intensities were read by EnVision (PerkinElmer, Waltham, Mass.). Firefly luciferase intensity is normalized by renilla luciferase intensity.
Cells were cultured in 384 well plates to appropriate density (40 μl total plating volume). 24 hours after plating, cells were treated with 100 nl compounds. 24 hours after incubation with compounds (48 hours after plating), assay reagents were prepared by mixing Luciferase Assay solution with Luciferase substrate and Stop & Glo solution to Stop & Glo substrate (extra reagents can be aliquoted and frozen for future use and are stable for at least one freeze/thaw cycle). […] The plate was spun down and 10 minutes were allowed for signal stabilization. Luciferase signal on the Perkin Elmer EnVision using the following parameters: Distance between plate & detector (mm)=0.2; Measurement time(s)=0.1; Glow (CT2) correction factor=0. Once the initial data is secure, a volume of Stop & Glo was added equal to each well equal to the volume of Luciferase reagent added above (If 10 μl Luciferase Reagent was added, 10 μl Stop & Glo was also added). The plate was spun down and 10 minutes were allowed for signal stabilization. The plate was read on the EnVision using the same parameters detailed above.

| SMILES | EC50 [µM] |
| --- | --- |
| COc1cccc(C2C3=C(CC(C)(C)CC3=O)Nc3n[nH]c(C)c32)c1 (centres unmarked) [Compound 23, 4-(3-methoxyphenyl)-3,7,7-trimethyl-6,7,8,9-tetrahydro-1H-pyrazolo[3,4-b]quinolin-5(4H)-one] | > 25 |
| Cc1[nH]nc2c1C(c1ccc(Cl)s1)C1=C(CC(C)(C)CC1=O)N2 (centres unmarked) [Compound 9, 4-(5-chlorothiophen-2-yl)-3,7,7-trimethyl-6,7,8,9-tetrahydro-1H-pyrazolo[3,4-b]quinolin-5(4H)-one] | > 25 |
| Cc1[nH]nc2c1C(c1cccc(Cl)c1)C1=C(CC(C)(C)CC1=O)N2 (centres unmarked) [Compound 14, 4-(3-chlorophenyl)-3,7,7-trimethyl-6,7,8,9-tetrahydro-1H-pyrazolo[3,4-b]quinolin-5(4H)-one] | 31.3 |
| Cc1[nH]nc2c1C(c1ccc(C#N)cc1)C1=C(CC(C)(C)CC1=O)N2 (centres unmarked) [Compound 34, 4-(3,7,7-trimethyl-5-oxo-4,5,6,7,8,9-hexahydro-2H-pyrazolo[3,4-b]quinolin-4-yl)benzonitrile] | > 25 |
| Cc1[nH]nc2c1C(c1ccc(C(F)(F)F)cc1)C1=C(CC(C)(C)CC1=O)N2 (centres unmarked) [Compound 31, 3,7,7-trimethyl-4-(4-(trifluoromethyl)phenyl)-6,7,8,9-tetrahydro-2H-pyrazolo[3,4-b]quinolin-5(4H)-one] | > 25 |
| Cc1[nH]nc2c1C(c1ccc(Cl)cc1)C1=C(CC(C)(C)CC1=O)N2 (centres unmarked) [Compound 15, 4-(4-chlorophenyl)-3,7,7-trimethyl-6,7,8,9-tetrahydro-1H-pyrazolo[3,4-b]quinolin-5(4H)-one] | > 25 |
| Cc1[nH]nc2c1C(c1cccc(F)c1)C1=C(CC(C)(C)CC1=O)N2 (centres unmarked) [Compound 11, 4-(3-fluorophenyl)-3,7,7-trimethyl-6,7,8,9-tetrahydro-1H-pyrazolo[3,4-b]quinolin-5(4H)-one] | > 25 |
| Cc1[nH]nc2c1C(c1cccnc1)C1=C(CC(C)(C)CC1=O)N2 (centres unmarked) [Compound 37, 3,7,7-trimethyl-4-(pyridin-3-yl)-6,7,8,9-tetrahydro-1H-pyrazolo[3,4-b]quinolin-5(4H)-one] | > 25 |
| Cc1[nH]nc2c1[C@H](c1ccccc1Br)C1=C(CC(C)(C)CC1=O)N2 (racemic) [Compound 80, 4-(2-bromophenyl)-3,7,7-trimethyl-6,7,8,9-tetrahydro-2H-pyrazolo[3,4-b]quinolin-5(4H)-one] | 5.63 |
| Cc1[nH]nc2c1C(c1ccc(Br)cn1)C1=C(CC(C)(C)CC1=O)N2 (centres unmarked) [Compound 39, 4-(5-bromopyridin-2-yl)-3,7,7-trimethyl-6,7,8,9-tetrahydro-1H-pyrazolo[3,4-b]quinolin-5(4H)-one] | > 25 |
| Cc1[nH]nc2c1C(c1ccccc1F)C1=C(CC(C)(C)CC1=O)N2 (centres unmarked) [Compound 10, 4-(2-fluorophenyl)-3,7,7-trimethyl-6,7,8,9-tetrahydro-1H-pyrazolo[3,4-b]quinolin-5(4H)-one] | 12.7 |
| Cc1cccc(C2C3=C(CC(C)(C)CC3=O)Nc3n[nH]c(C)c32)c1 (centres unmarked) [Compound 18, 3,7,7-trimethyl-4-(m-tolyl)-6,7,8,9-tetrahydro-2H-pyrazolo[3,4-b]quinolin-5(4H)-one] | > 25 |
| Cc1[nH]nc2c1C(c1ccc(F)cc1)C1=C(CC(C)(C)CC1=O)N2 (centres unmarked) [Compound 12, 4-(4-fluorophenyl)-3,7,7-trimethyl-6,7,8,9-tetrahydro-1H-pyrazolo[3,4-b]quinolin-5(4H)-one] | > 25 |
| Cc1[nH]nc2c1C(c1ccc(F)cc1Cl)C1=C(CC(C)(C)CC1=O)N2 (centres unmarked) [Compound 35, 4-(2-chloro-4-fluorophenyl)-3,7,7-trimethyl-6,7,8,9-tetrahydro-1H-pyrazolo[3,4-b]quinolin-5(4H)-one] | > 25 |
| COc1ccc(C2C3=C(CC(C)(C)CC3=O)Nc3n[nH]c(C)c32)cc1 (centres unmarked) [Compound 24, 4-(4-methoxyphenyl)-3,7,7-trimethyl-6,7,8,9-tetrahydro-1H-pyrazolo[3,4-b]quinolin-5(4H)-one] | > 25 |
| Cc1[nH]nc2c1C(c1ccc3c(c1)OCO3)C1=C(CC(C)(C)CC1=O)N2 (centres unmarked) [Compound 26, 4-(benzo[d][1,3]dioxol-5-yl)-3,7,7-trimethyl-6,7,8,9-tetrahydro-1H-pyrazolo[3,4-b]quinolin-5(4H)-one] | > 25 |
| Cc1[nH]nc2c1[C@@H](c1ccccc1C#N)C1=C(CC(C)(C)CC1=O)N2 [Compound 32, 2-(3,7,7-trimethyl-5-oxo-4,5,6,7,8,9-hexahydro-2H-pyrazolo[3,4-b]quinolin-4-yl)benzonitrile] | 23.4 |
| Cc1[nH]nc2c1C(c1ccsc1)C1=C(CC(C)(C)CC1=O)N2 (centres unmarked) [Compound 8, 3,7,7-trimethyl-4-(thiophen-3-yl)-6,7,8,9-tetrahydro-1H-pyrazolo[3,4-b]quinolin-5(4H)-one] | > 25 |
| Cc1[nH]nc2c1C(c1cccs1)C1=C(CC(C)(C)CC1=O)N2 (racemic) [Compound 5, 3,7,7-trimethyl-4-(thiophen-2-yl)-6,7,8,9-tetrahydro-1H-pyrazolo[3,4-b]quinolin-5(4H)-one] | > 25 |
| Cc1[nH]nc2c1C(c1ccccn1)C1=C(CC(C)(C)CC1=O)N2 (centres unmarked) [Compound 36, 3,7,7-trimethyl-4-(pyridin-2-yl)-6,7,8,9-tetrahydro-1H-pyrazolo[3,4-b]quinolin-5(4H)-one] | > 25 |
| Cc1[nH]nc2c1C(C)(c1ccccc1)C1=C(CC(C)(C)CC1=O)N2 (centres unmarked) [Compound 67, 3,4,7,7-tetramethyl-4-phenyl-6,7,8,9-tetrahydro-2H-pyrazolo[3,4-b]quinolin-5(4H)-one] | > 25 |
| Cc1[nH]nc2c1C(c1ccn[nH]1)C1=C(CC(C)(C)CC1=O)N2 (centres unmarked) [Compound 40, 3,7,7-trimethyl-4-(1H-pyrazol-5-yl)-6,7,8,9-tetrahydro-1H-pyrazolo[3,4-b]quinolin-5(4H)-one] | > 25 |
| Cc1ccc(C2C3=C(CC(C)(C)CC3=O)Nc3n[nH]c(C)c32)cc1 (centres unmarked) [Compound 19, 3,7,7-trimethyl-4-(p-tolyl)-6,7,8,9-tetrahydro-1H-pyrazolo[3,4-b]quinolin-5(4H)-one] | > 25 |

Same assay, conditions: Homo sapiens, HEK293, read-out: TCF/LEF EC50 (μM), HEK293 reporter cells

| SMILES | EC50 [µM] |
| --- | --- |
| Cc1[nH]nc2c1C(c1ccncc1)C1=C(CC(C)(C)CC1=O)N2 (centres unmarked) [Compound 38, 3,7,7-trimethyl-4-(pyridin-4-yl)-6,7,8,9-tetrahydro-1H-pyrazolo[3,4-b]quinolin-5(4H)-one] | > 25 |
| COc1ccccc1C1C2=C(CC(C)(C)CC2=O)Nc2n[nH]c(C(F)(F)F)c21 (racemic) [Compound 53, 4-(2-methoxyphenyl)-7,7-dimethyl-3-(trifluoromethyl)-6,7,8,9-tetrahydro-2H-pyrazolo[3,4-b]quinolin-5(4H)-one] | 16.9 |
